Results as given in patent US20110200618A1, “ERBB4 INHIBITORS AND USES THEREOF IN TREATMENT OF NEUROPSYCHIATRIC DISORDERS” (priority 2008, published 2011).

Legend:
Assay type in all cases: cell-based
[1] = tested on: NRG1 induced ERK activation; assay: NRG1 induced ERK activation in human olfactory epithelial (hOE) cultures, western blot; settings: healthy person, inhibitors 20 min, then 100 ng/ml NRG1 10 min, 10 μM U0126, 10 nM wortmannin, 100 nM K-252, 2.5 μM AG1478, 1 μM AG879
Method: Protein extracts were analyzed for the expression of p-ERK and glyeraldehyde 3-dehydrogenase (GAPDH). U, 10 μM of U0126: W, 10 nM of wortmannin: K, 100 nM K-252, 2.5 μM of AG1478 and 1 μM of AG879;
Protein extracts were analyzed for the expression of p-ERK and glyceraldehyde 3-dehydrogenase (GAPDH). (A) A representative western blotting (B) p-ERK intensities were normalized with respect to GAPDH, which were then used to calculate percent inhibition.
As an internal control experiment, the cells were also incubated with inhibitors for ERK, AKT or trkb activation, U0126, wortmannin or K-252 respectively.

activation of AKT = assay: NRG1 stimulation of post-mortem mouse brain tissues after 60 min pre-incubation, AKT activation; settings: post-mortem mouse brain tissue slices, GSK compound at 10 μM, 100 ng/ml NRG1
[2] = tested on: NRG1 induced ERK activation; assay: NRG1 stimulation of post-mortem human prefrontal cortex tissues, ERK activation; settings: post-mortem PFC of healthy control; 2.5 μM AG1478 pre-incubated 15 min, 100 ng/ml NRG1
Method: NRG1 stimulation of human post-mortem PFC. 100 mg of post-mortem brain tissues of a healthy control subject were incubated with or without 100 ng/ml of NRG1 in the presence or absence of 2.5 μM AG1478. Protein extracts were analyzed for p-ERK and ERK;
Protein extracts were analyzed for the expression of ERK, AKT and GSK and their phosphorylated counterparts;
erbB stimulation/inhibition experiment wastested in post-mortem brain tissues. FIG. 2 represents an experiment, in which the PFC of a healthy control subject was stimulated with NRG1 in the presence of AG1478. In this experiment, the tissues were incubated with the inhibitor for 15 min before added with 100 ng/ml of NRG1.
GSK1495829A was tested in post-mortem mouse and human brain tissues. FIG. 4 represents an experiment, in which the PFC tissues of a healthy control subject were pre-incubated with varied concentrations of the inhibitor for 15 min before the ligand stimulation with 100 ng/ml of NRG1. […] One possible explanation could be that the brain tissues are less permeable to the inhibitors than OE culture cells.

activation of ERK = assay: NRG1 stimulation of post-mortem mouse brain tissues after 60 min pre-incubation, ERK activation; settings: post-mortem mouse brain tissue slices, GSK compound at 10 μM, 100 ng/ml NRG1, vehicle control also failed to respond to NRG1
Method: Protein extracts were analyzed for the expression of p-ERK;
To enhance the permeability of the inhibitors, tissue slices were pre-incubated with the inhibitors for 60 min before added with NRG1.

Structure (SMILES)	NRG1 induced p-ERK with respect to GAPDH [1]	activation of AKT (activation of AKT)	NRG1 induced ERK activation (ratio p-ERK to ERK) [2]	activation of ERK (activation of ERK)
CC(C)(C)c1cc(C=C(C#N)C(N)=S)cc(C(C)(C)C)c1O [AG 879, α-Cyano-(3,5-di-t-butyl-4-hydroxy)thiocinnamide]	attenuated	–	–	–
COc1cc2ncnc(Nc3cccc(Cl)c3)c2cc1OC [AG 1478, 4-(3-Chloroanilino)-6,7-dimethoxyquinazoline]	attenuated	did not reduce	significantly reduced	did not reduce
N#CC(=C(/N)Sc1ccccc1N)/C(C#N)=C(\N)Sc1ccccc1N [U0126]	significantly reduced	–	–	–
